Measurements as given in patent US12291519B2, “2-hydroxycycloalkane-1-carbamoyl” (Idorsia Pharmaceuticals Ltd, priority 2019, dated 2025).

Columns and labels:
human Gal-1 (hGal-1) = experiment: Competitive binding assay: biotinylated hGal-1 binding to microplate-adsorbed asialofetuin (ASF); details: Activity on hGal-1; binding of biotinylated hGal-1 to ASF-coated plates; mean values
How it was run: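 Inhibition measured as loss of hGal-1 (biotinylated, 300–1000 ng/mL, wild type or Cys→Ser mutant) binding to adsorbed asialofetuin over 3 h at 4 °C. Bound lectin detected with streptavidin-HRP and ABTS (410 nm, 30–45 min); IC50 values averaged across repeat measurements.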

human Gal-3 (hGal-3) = human Gal-3 (hGal-3) (Homo sapiens (Human), UniProt P17931); experiment: Competitive binding assay: biotinylated hGal-3 binding to microplate-adsorbed asialofetuin (ASF); details: Activity on hGal-3; binding of biotinylated hGal-3 to ASF-coated plates; mean values
Chain of human Gal-3 (hGal-3) (P17931 whole entry): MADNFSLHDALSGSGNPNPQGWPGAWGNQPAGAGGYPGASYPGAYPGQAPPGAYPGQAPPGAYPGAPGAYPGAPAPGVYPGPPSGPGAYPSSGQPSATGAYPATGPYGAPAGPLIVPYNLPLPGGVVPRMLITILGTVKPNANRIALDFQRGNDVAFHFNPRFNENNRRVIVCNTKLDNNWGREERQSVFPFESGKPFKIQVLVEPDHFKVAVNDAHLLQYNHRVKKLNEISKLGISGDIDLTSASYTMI
How it was run: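 Serially diluted compounds competed with biotinylated human Gal-3 for binding to plate-adsorbed asialofetuin over 3 h at 4 °C. Bound Gal-3 was detected with streptavidin-peroxidase (80 ng/mL, 1 h, 4 °C) and ABTS substrate. IC50 values are means of several measurements.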

Chain of human Gal-1 (hGal-1) (P09382 2-135 limits assumed): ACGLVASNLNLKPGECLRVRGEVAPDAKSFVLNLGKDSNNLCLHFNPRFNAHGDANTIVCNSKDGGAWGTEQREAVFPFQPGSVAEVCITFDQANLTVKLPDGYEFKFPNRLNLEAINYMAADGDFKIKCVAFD

| IC50 (human Gal-1 (hGal-1)) [nM] | IC50 (human Gal-3 (hGal-3)) [nM] | Compound |
| --- | --- | --- |
| 751 | 50 | CO[C@@H]1[C@@H](n2cc(-c3cc(F)cc(Br)c3)nn2)[C@@H](O)[C@@H](CO)O[C@H]1C(=O)N(c1cc(C)cc(C#N)c1)[C@H]1CCCC[C@@H]1O [Example 146, (2R,3R,4S,5R,6R)-4-(4-(3-bromo-5-fluorophenyl)-1H-1,2,3-triazol-1-yl)-N-(3-cyano-5-methylphenyl)-5-hydroxy-N-((1S,2S)-2-hydroxycyclohexyl)-6-(hydroxymethyl)-3-methoxytetrahydro-2H-pyran-2-carboxamide] |
| 1560 | 56 | COc1cc(C#N)cc(N(C(=O)[C@@H]2O[C@H](CO)[C@H](O)[C@H](n3cc(-c4cc(F)cc(Cl)c4)nn3)[C@H]2OC)[C@H]2CCCC[C@@H]2O)c1 [Example 141, (2R,3R,4S,5R,6R)-4-(4-(3-chloro-5-fluorophenyl)-1H-1,2,3-triazol-1-yl)-N-(3-cyano-5-methoxyphenyl)-5-hydroxy-N-((1S,2S)-2-hydroxycyclohexyl)-6-(hydroxymethyl)-3-methoxytetrahydro-2H-pyran-2-carboxamide] |
| 398 | 16 | CO[C@@H]1[C@@H](n2cc(-c3cc(F)c(F)c(F)c3)nn2)[C@@H](O)[C@@H](CO)O[C@H]1C(=O)N(c1cc(Cl)cc(C(F)(F)F)c1)[C@H]1CCCC[C@@H]1O [Example 95, (2R,3R,4S,5R,6R)-N-(3-chloro-5-(trifluoromethyl)phenyl)-5-hydroxy-N-((1S,2S)-2-hydroxycyclohexyl)-6-(hydroxymethyl)-3-methoxy-4-(4-(3,4,5-trifluorophenyl)-1H-1,2,3-triazol-1-yl)tetrahydro-2H-pyran-2-carboxamide] |
| 2320 | 26 | CO[C@@H]1[C@@H](n2cc(-c3cc(F)cc(F)c3)nn2)[C@@H](O)[C@@H](CO)O[C@H]1C(=O)N(c1cc(C)cc(Cl)c1)[C@H]1CCCC[C@@H]1O [Example 83, (2R,3R,4S,5R,6R)-N-(3-chloro-5-methylphenyl)-4-(4-(3,5-difluorophenyl)-1H-1,2,3-triazol-1-yl)-5-hydroxy-N-((1S,2S)-2-hydroxycyclohexyl)-6-(hydroxymethyl)-3-methoxytetrahydro-2H-pyran-2-carboxamide] |
| 860 | 27 | CO[C@@H]1[C@@H](n2cc(-c3cc(F)cc(Cl)c3)nn2)[C@@H](O)[C@@H](CO)O[C@H]1C(=O)N(c1cc(Cl)cc(Cl)c1)[C@H]1CCCC[C@@H]1O [Example 139, (2R,3R,4S,5R,6R)-4-(4-(3-chloro-5-fluorophenyl)-1H-1,2,3-triazol-1-yl)-N-(3,5-dichlorophenyl)-5-hydroxy-N-((1S,2S)-2-hydroxycyclohexyl)-6-(hydroxymethyl)-3-methoxytetrahydro-2H-pyran-2-carboxamide] |

Further lines, the compound ahead of its results:

| Compound | IC50 (human Gal-1 (hGal-1)) [nM] | IC50 (human Gal-3 (hGal-3)) [nM] |
| --- | --- | --- |
| CO[C@@H]1[C@@H](n2cc(-c3ccc(Br)c(F)c3F)nn2)[C@@H](O)[C@@H](CO)O[C@H]1C(=O)N(c1cc(Cl)cc(Cl)c1)[C@H]1CCCC[C@@H]1O [Example 177, (2R,3R,4S,5R,6R)-4-(4-(4-bromo-2,3-difluorophenyl)-1H-1,2,3-triazol-1-yl)-N-(3,5-dichlorophenyl)-5-hydroxy-N-((1S,2S)-2-hydroxycyclohexyl)-6-(hydroxymethyl)-3-methoxytetrahydro-2H-pyran-2-carboxamide] | 852 | 13 |
| O=C([C@@H]1O[C@H](CO)[C@H](O)[C@H](n2cc(-c3cc(F)c(F)c(F)c3)nn2)[C@H]1O)N(Cc1cccnc1C(F)(F)F)[C@H]1CCCC[C@@H]1O [Example 9, (2R,3R,4S,5R,6R)-3,5-dihydroxy-N-((1S,2S)-2-hydroxycyclohexyl)-6-(hydroxymethyl)-N-((2-(trifluoromethyl)pyridin-3-yl)methyl)-4-(4-(3,4,5-trifluorophenyl)-1H-1,2,3-triazol-1-yl)tetrahydro-2H-pyran-2-carboxamide] | 1640 | 147 |
| CO[C@@H]1[C@@H](n2cc(-c3cc(F)c(F)c(F)c3)nn2)[C@@H](O)[C@@H](CO)O[C@H]1C(=O)N(c1cc(Cl)ccc1F)[C@H]1CCCC[C@@H]1O [Example 105, (2R,3R,4S,5R,6R)-N-(5-chloro-2-fluorophenyl)-5-hydroxy-N-((1S,2S)-2-hydroxycyclohexyl)-6-(hydroxymethyl)-3-methoxy-4-(4-(3,4,5-trifluorophenyl)-1H-1,2,3-triazol-1-yl)tetrahydro-2H-pyran-2-carboxamide] | 136 | 14 |
| CO[C@@H]1[C@@H](n2cc(-c3cc(F)c(F)c(F)c3)nn2)[C@@H](O)[C@@H](CO)O[C@H]1C(=O)N(c1ccc(F)c(Br)c1)[C@H]1CCCC[C@@H]1O [Example 92, (2R,3R,4S,5R,6R)-N-(3-bromo-4-fluorophenyl)-5-hydroxy-N-((1S,2S)-2-hydroxycyclohexyl)-6-(hydroxymethyl)-3-methoxy-4-(4-(3,4,5-trifluorophenyl)-1H-1,2,3-triazol-1-yl)tetrahydro-2H-pyran-2-carboxamide] | 340 | 18 |
| CC(=O)O[C@@H]1[C@@H](n2cc(-c3cc(F)c(C)c(F)c3)nn2)[C@@H](O)[C@@H](CO)O[C@H]1C(=O)N(Cc1ccnn1C)[C@H]1CCCC[C@@H]1O [Example 51, (2R,3R,4S,5R,6R)-4-(4-(3,5-difluoro-4-methylphenyl)-1H-1,2,3-triazol-1-yl)-5-hydroxy-2-(((1S,2S)-2-hydroxycyclohexyl)((1-methyl-1H-pyrazol-5-yl)methyl)carbamoyl)-6-(hydroxymethyl)tetrahydro-2H-pyran-3-yl acetate] | 11200 | 58 |
| CO[C@@H]1[C@@H](n2cc(-c3cc(F)c(F)c(F)c3)nn2)[C@@H](O)[C@@H](CO)O[C@H]1C(=O)N(c1cc(C)n(C)n1)[C@H]1CCCC[C@@H]1O [Example 199, (2R,3R,4S,5R,6R)-N-(1,5-dimethyl-1H-pyrazol-3-yl)-5-hydroxy-N-((1S,2S)-2-hydroxycyclohexyl)-6-(hydroxymethyl)-3-methoxy-4-(4-(3,4,5-trifluorophenyl)-1H-1,2,3-triazol-1-yl)tetrahydro-2H-pyran-2-carboxamide] | 18000 | 321 |
| CO[C@@H]1[C@@H](n2cc(-c3cc(F)c(F)c(F)c3)nn2)[C@@H](O)[C@@H](CO)O[C@H]1C(=O)N(c1cc(F)cc(Br)c1)[C@H]1CCCC[C@@H]1O [Example 120, (2R,3R,4S,5R,6R)-N-(3-bromo-5-fluorophenyl)-5-hydroxy-N-((1S,2S)-2-hydroxycyclohexyl)-6-(hydroxymethyl)-3-methoxy-4-(4-(3,4,5-trifluorophenyl)-1H-1,2,3-triazol-1-yl)tetrahydro-2H-pyran-2-carboxamide] | 422 | 21 |
| O=C([C@@H]1O[C@H](CO)[C@H](O)[C@H](n2cc(-c3cc(F)c(F)c(F)c3)nn2)[C@H]1O)N(Cc1ccccc1C(F)(F)F)[C@H]1CCCC[C@@H]1O [Example 7, (2R,3R,4S,5R,6R)-3,5-dihydroxy-N-((1S,2S)-2-hydroxycyclohexyl)-6-(hydroxymethyl)-N-(2-(trifluoromethyl)benzyl)-4-(4-(3,4,5-trifluorophenyl)-1H-1,2,3-triazol-1-yl)tetrahydro-2H-pyran-2-carboxamide] | 1240 | 57 |
| CO[C@@H]1[C@@H](n2cc(-c3cc(F)c(F)c(F)c3)nn2)[C@@H](O)[C@@H](CO)O[C@H]1C(=O)N(Cc1nccn1C)[C@H]1CCCC[C@@H]1O [Example 37, (2R,3R,4S,5R,6R)-5-hydroxy-N-((1S,2S)-2-hydroxycyclohexyl)-6-(hydroxymethyl)-3-methoxy-N-((1-methyl-1H-imidazol-2-yl)methyl)-4-(4-(3,4,5-trifluorophenyl)-1H-1,2,3-triazol-1-yl)tetrahydro-2H-pyran-2-carboxamide] | 5770 | 337 |
| O=C([C@@H]1O[C@H](CO)[C@H](O)[C@H](n2cc(-c3cc(F)c(F)c(F)c3)nn2)[C@H]1O)N(Cc1ncccc1C(F)(F)F)[C@H]1CCCC[C@@H]1O [Example 13, (2R,3R,4S,5R,6R)-3,5-dihydroxy-N-((1S,2S)-2-hydroxycyclohexyl)-6-(hydroxymethyl)-N-((3-(trifluoromethyl)pyridin-2-yl)methyl)-4-(4-(3,4,5-trifluorophenyl)-1H-1,2,3-triazol-1-yl)tetrahydro-2H-pyran-2-carboxamide] | 7250 | 255 |
| O=C([C@@H]1O[C@H](CO)[C@H](O)[C@H](n2cc(-c3cc(F)c(F)c(Cl)c3)nn2)[C@H]1O)N(Cc1ccccc1C(F)(F)F)[C@H]1CCCC[C@@H]1O [Example 66, (2R,3R,4S,5R,6R)-4-(4-(3-chloro-4,5-difluorophenyl)-1H-1,2,3-triazol-1-yl)-3,5-dihydroxy-N-((1S,2S)-2-hydroxycyclohexyl)-6-(hydroxymethyl)-N-(2-(trifluoromethyl)benzyl)tetrahydro-2H-pyran-2-carboxamide] | 534 | 95 |
| O=C([C@@H]1O[C@H](CO)[C@H](O)[C@H](n2cc(-c3cc(F)c(F)c(F)c3)nn2)[C@H]1O)N(Cc1cnccc1C(F)(F)F)[C@H]1CCCC[C@@H]1O [Example 10, (2R,3R,4S,5R,6R)-3,5-dihydroxy-N-((1S,2S)-2-hydroxycyclohexyl)-6-(hydroxymethyl)-N-((4-(trifluoromethyl)pyridin-3-yl)methyl)-4-(4-(3,4,5-trifluorophenyl)-1H-1,2,3-triazol-1-yl)tetrahydro-2H-pyran-2-carboxamide] | 1690 | 122 |
